Assay results reported in US20210369853A1, “TARGETED PROTEASE DEGRADATION PLATFORM” (EUBULUS BIOTHERAPEUTICS INC., priority 2018, published 2021).
Where two headings read alike, the source gives them in different places. Each block holds one molecule with its values, some of them ahead of it.

Tests used:
Assay type in all cases: cell-based
[1] = test system: Human Monocytic Leukemia MV4-11; assay: Cell proliferation experiment (Alarm blue, 72 h, EC50); details: Homo sapiens
In short: (§1)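 Duplicate wells per concentration, 5-fold dilution series, 72 h continuous exposure of log-phase cells; read-out Alamar blue fluorescence, EC50 derived by curve fit with minimum, maximum and slope terms.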

[2] = test system: Human Acute Myelomonocytic Leukemia HL-60; assay: as above; details: HL-60 cells
In short: as §1

[3] = test system: Human Colon Cancer HCT-116; assay: as above; details: Homo sapiens, HCT-116; HCT116 cells
In short: as §1

PLK1 = target: T1, PLK1 (Homo sapiens, UniProt P53350); assay: Western blot, protein degradation (DC50)
T1 construct: endogenous in cells
T1 sequence (P53350 whole entry): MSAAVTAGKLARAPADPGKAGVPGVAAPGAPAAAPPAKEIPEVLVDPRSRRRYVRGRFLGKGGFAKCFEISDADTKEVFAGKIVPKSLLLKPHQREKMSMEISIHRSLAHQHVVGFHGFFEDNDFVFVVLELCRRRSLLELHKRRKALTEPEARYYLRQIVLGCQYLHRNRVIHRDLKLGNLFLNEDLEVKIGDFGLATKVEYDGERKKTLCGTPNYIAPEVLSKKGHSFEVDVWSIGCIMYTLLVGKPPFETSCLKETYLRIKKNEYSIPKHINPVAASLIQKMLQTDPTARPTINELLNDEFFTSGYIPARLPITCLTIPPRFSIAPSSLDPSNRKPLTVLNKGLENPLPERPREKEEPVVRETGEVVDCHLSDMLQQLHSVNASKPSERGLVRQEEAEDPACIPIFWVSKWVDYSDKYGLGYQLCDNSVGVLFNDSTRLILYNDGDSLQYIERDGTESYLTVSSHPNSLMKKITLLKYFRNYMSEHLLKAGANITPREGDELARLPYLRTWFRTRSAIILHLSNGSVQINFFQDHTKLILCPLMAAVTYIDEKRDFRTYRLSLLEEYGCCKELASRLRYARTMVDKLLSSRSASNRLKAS
In short: (§2)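 Cells treated with compound, lysed in RIPA and resolved by SDS-PAGE (4%-12%); PVDF blots probed with primary antibody overnight at 4° C, then secondary antibody, and developed with ECL. Band intensities quantified by densitometry to give degradation.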

HUVEC [4] = assay: Cell proliferation experiment (EC50), HUVEC; details: Homo sapiens
PBMC [5] = assay: Cell proliferation experiment (EC50), PBMC
Daudi [6] = assay: Cell proliferation experiment (EC50), Daudi; details: Homo sapiens; Daudi cells
[7] = test system: Human Glioma Cells U-87 MG; assay: Cell proliferation experiment (Alarm blue, 72 h, EC50); details: Homo sapiens; U-87MG cells
In short: as §1

[8] = test system: Human Small Cell Lung Cancer NCI-H82; assay: as above; details: Homo sapiens, NCI-H82; NCIH82 cells
In short: as §1

Human Colon Cancer HT-29 = assay: as above; details: Homo sapiens; HT-29 cells
In short: as §1

[9] = test system: Human cervical adenocarcinoma cells Hela; assay: as above; details: Homo sapiens
In short: as §1

[10] = test system: Human Monocytic Leukemia THP-1; assay: as above; details: THP-1 cells
In short: as §1

[11] = test system: Human Breast Cancer MDA-MB-231; assay: as above; details: Homo sapiens; MDA-MB-231 cells
In short: as §1

BRD4 = target: T2, BRD4 (Homo sapiens, UniProt O60885); assay: Western blot, protein degradation (DC50)
T2 construct: endogenous in cells
In short: as §2

PBMC [12] = assay: Cell proliferation experiment (EC50), PBMC; remark: listed apart in the source
HUVEC [13] = assay: Cell proliferation experiment (EC50), HUVEC; details: Homo sapiens; remark: listed apart in the source
[14] = test system: Human Acute Lymphoblastic Leukemia Cells MOLT-4; assay: Cell proliferation experiment (Alarm blue, 72 h, EC50); details: MOL4-4 cells
In short: as §1

Daudi [15] = assay: Cell proliferation experiment (EC50), Daudi; details: Homo sapiens; Daudi cells; remark: listed apart in the source
[16] = 6 h, western blot, read-out: PLK1 DC50 (6 h)
[17] = 6 h, western blot, read-out: BRD4 DC50 (6 h)

EC50 ([1]; MV4-11, MV4;11 cells): 10 to 100 nM
EC50 [2]: 100 to 1000 nM
EC50 [3]: > 1000 nM
DC50 (PLK1; 6 h, read-out: PLK1 DC50 (6 h)): < 10 nM
Structure (SMILES): O=C1CCC(N2Cc3c(NC(=O)CCOCCOCCOCCNC(=O)[C@]4(Cc5cccc(Nc6nccs6)n5)CC[C@@H](Oc5cccc(Cl)c5F)CC4)cccc3C2=O)C(=O)N1 (some centres unmarked) [UB-180581]
EC50 (HUVEC [4]): > 1000 nM
EC50 (PBMC [5]): > 1000 nM

EC50 (Daudi [6]): 100 to 1000 nM
EC50 ([1]; MV4-11, MV4;11 cells): 10 to 100 nM
EC50 [7]: 100 to 1000 nM
EC50 [8]: 100 to 1000 nM
EC50 (Human Colon Cancer HT-29): 100 to 1000 nM
Structure (SMILES): CC[C@@H]1C(=O)N(C)c2cnc(Nc3ccc(C(=O)NCCOCCOCCOCCC(=O)Nc4cccc5c4CN(C4CCC(=O)NC4=O)C5=O)cc3OC)nc2N1C1CCCC1 (some centres unmarked) [UB-180605]

Structure (SMILES): CC[C@@H]1C(=O)N(C)c2cnc(Nc3ccc(C(=O)NCCOCCOCCOCCNCCC(=O)Nc4cccc5c4CN(C4CCC(=O)NC4=O)C5=O)cc3OC)nc2N1C1CCCC1 (some centres unmarked) [UB-180633]
EC50 ([1]; MV4;11 cells): 10 to 100 nM
EC50 [7]: 100 to 1000 nM
EC50 [2]: 100 to 1000 nM
EC50 [9]: 100 to 1000 nM
EC50 [3]: > 1000 nM
EC50 [8]: > 1000 nM
EC50 [10]: 100 to 1000 nM
EC50 [11]: 100 to 1000 nM
EC50 (Human Colon Cancer HT-29): 100 to 1000 nM
DC50 (PLK1; 6 h, read-out: PLK1 DC50 (6 h)): 100 to 1000 nM
DC50 (PLK1; 24 h, read-out: PLK1 DC50 (24 h)): 10 to 100 nM
DC50 (BRD4; 6 h, read-out: BRD4 DC50 (6 h)): < 10 nM
DC50 (BRD4; 24 h, read-out: BRD4 DC50 (24 h)): < 10 nM
EC50 (HUVEC [4]): > 1000 nM
EC50 (PBMC [5]): > 1000 nM

Structure (SMILES): CC[C@@H]1C(=O)N(C)c2cnc(Nc3ccc(C(=O)NCCOCCNCCCCCCC(=O)Nc4cccc5c4CN(C4CCC(=O)NC4=O)C5=O)cc3OC)nc2N1C1CCCC1 (some centres unmarked) [UB-180655]
EC50 ([1]; MV4;11 cells): 10 to 100 nM
DC50 (PLK1; [16]): 100 to 1000 nM
DC50 (BRD4; [17]): < 10 nM
EC50 (PBMC [12]): > 1000 nM
EC50 (HUVEC [13]): > 1000 nM

Structure (SMILES): CC[C@@H]1C(=O)N(C)c2cnc(Nc3ccc(C(=O)NCCCNCCCCCC(=O)Nc4cccc5c4CN(C4CCC(=O)NC4=O)C5=O)cc3OC)nc2N1C1CCCC1 (some centres unmarked) [UB-180660]
EC50 ([1]; MV4-11, MV4;11 cells): 10 to 100 nM
EC50 [7]: 100 to 1000 nM
EC50 [2]: 100 to 1000 nM
EC50 [9]: 100 to 1000 nM
EC50 [3]: 100 to 1000 nM
EC50 [8]: > 1000 nM
EC50 [10]: 100 to 1000 nM
EC50 [11]: 100 to 1000 nM
EC50 (Human Colon Cancer HT-29): 100 to 1000 nM
DC50 (PLK1; [16]): < 10 nM
DC50 (BRD4; [17]): 10 to 100 nM
EC50 (PBMC [12]): > 1000 nM
EC50 (HUVEC [13]): > 1000 nM

Structure (SMILES): CC[C@@H]1C(=O)N(C)c2cnc(Nc3ccc(C(=O)NCCOCCNCCCCCCC(=O)Nc4cccc5c4CN(C4CCC(=O)NC4=O)C5=O)cc3OC)nc2N1Cc1ccc(Cl)s1 (some centres unmarked) [UB-180675]
EC50 ([1]; MV4;11 cells): 10 to 100 nM
DC50 (PLK1; [16]): < 10 nM
DC50 (BRD4; [17]): < 10 nM
EC50 (PBMC [12]): > 1000 nM
EC50 (HUVEC [13]): > 1000 nM

Structure (SMILES): CC[C@@H]1C(=O)N(C)C2CNC(Nc3ccc(C(=O)NCCCNCCCC(=O)Nc4cccc5c4CN(C4CCC(=O)NC4=O)C5=O)cc3OC)NC2N1Cc1ccc(Cl)s1 (some centres unmarked) [UB-180678]
EC50 ([1]; MV4;11 cells): 10 to 100 nM
EC50 [7]: 100 to 1000 nM
EC50 [2]: 100 to 1000 nM
EC50 [14]: 100 to 1000 nM
EC50 [8]: 100 to 1000 nM
EC50 [11]: 100 to 1000 nM
EC50 (Human Colon Cancer HT-29): 100 to 1000 nM
DC50 (PLK1; [16]): 100 to 1000 nM
DC50 (BRD4; [17]): < 10 nM
EC50 (PBMC [12]): 100 to 1000 nM
EC50 (HUVEC [13]): 100 to 1000 nM

Structure (SMILES): CC[C@@H]1C(=O)N(C)c2cnc(Nc3ccc(C(=O)NCc4cn(CCNCCC(=O)Nc5cccc6c5CN(C5CCC(=O)NC5=O)C6=O)nn4)cc3OC)nc2N1C1CCCC1 (some centres unmarked) [UB-180680]
EC50 (Daudi [15]): 100 to 1000 nM
EC50 ([1]; MV4;11 cells): 10 to 100 nM
EC50 [7]: 100 to 1000 nM
EC50 [2]: 100 to 1000 nM
EC50 [14]: 100 to 1000 nM
EC50 [8]: 100 to 1000 nM
EC50 [11]: 100 to 1000 nM
EC50 (Human Colon Cancer HT-29): 100 to 1000 nM
DC50 (PLK1; [16]): < 10 nM
DC50 (PLK1; 24 h, western blot, read-out: PLK1 DC50 (24 h)): 10 to 100 nM
DC50 (BRD4; [17]): < 10 nM
DC50 (BRD4; 24 h, western blot, read-out: BRD4 DC50 (24 h)): < 10 nM
EC50 (PBMC [12]): > 1000 nM
EC50 (HUVEC [13]): > 1000 nM
